In patent US8338565B2, “Macrocyclic compounds for inhibition of tumor necrosis factor alpha” (Ensemble Therapeutics Corporation, priority 2008, dated 2012):
Numbered stars: 1 amine (or outer) side, 2 acyl side, 3 side chain; on linkers, the order of the positions; unused ones are H or OH. Bridge positions count the residues as written; N and C are the ends. Square brackets hold non-standard residues; d marks the D form. Peptide text beside a SMILES is read from it. Bip = N[C@@H](Cc1ccc(-c2ccccc2)cc1)C(=O)O; Phe(4-NH2) = Nc1ccc(C[C@H](N)C(=O)O)cc1; d(hPhe) = N[C@H](CCc1ccccc1)C(=O)O; Suc = O=C(CCC(=O)[*:2])[*:1]

Tests used:
[1] = tested on: TNF-α (degradation of IkB in HeLa cells or A431 cells); assay: Human cell-based assay: inhibition of TNF-α induced degradation of IkB; conditions: HeLa or A431 cells
rat paw edema model = assay: Rat paw edema model (carrageenan), anti-inflammatory activity; type: in vivo, Sprague-Dawley (SD) rats; conditions: Table 10; 3.0 mg/kg PO; 2 h post-carrageenan

For `O=C1CCC(=O)N[C@H](CCc2ccccc2)C(=O)N[C@@H](Cc2ccc(-c3ccccc3)cc2)C(=O)N[C@H](Cc2ccccc2)C(=O)N[C@H](C(=O)N[C@@H](Cc2ccccc2)C(=O)O)Cc2ccc(cc2)N1` [Compound 202] ([d(hPhe)][Bip][dF][Phe(4-NH2)]F-OH; linker N-4 via Suc), the inhibition at 5 µM ([1]; 5 μM compound, read-out: Inhibition at Various Compound Concentrations, 5 μM) was 10 to 50%, the inhibition at 10 µM ([1]; 10 μM compound, read-out: Inhibition at Various Compound Concentrations, 10 μM) was 50 to 80% and the “Change in Paw Volume” value (rat paw edema model) was 1.25 ± 0.08 mL.
